{
  "source": "patent US4370313A",
  "about": "“Nitrofurantoin dosage form” (Eaton Laboratories, Inc., priority 1981, dated 1983)",
  "origin": "cited, not measured here",
  "data": [
    {"smiles": "O=C1CN(/N=C/c2ccc([N+](=O)[O-])o2)C(=O)N1", "note": "[nitrofurantoin]", "values": [
      {"measurement": "preferred absorption in a limited segment of the human gastrointestinal tract", "result": "duodenum"},
      {"measurement": "expected urinary level peaks", "setting": "immediately available dose, conventional dosage forms, human", "result": "2 to 3", "unit": "h"}
    ]}
  ]
}
